Reference: US20230095509A1, “NON-FIBRILLAR HEMOGLOBIN S OLIGOMERS AND METHODS TO IDENTIFY MODULATORS OF HEMOGLOBIN S POLYMERIZATION” (REGENTS OF THE UNIVERSITY OF MINNESOTA, priority 2021, published 2023)
Entries after “also recorded” stand apart in the source; their conditions may differ.

How the values were obtained:
[1] = target: deoxy-HbS oligomers (sickle hemoglobin, HbS) (Homo sapiens, UniProt P68871+P69905, E7V); assay: Dynamic light scattering (DLS) of deoxy-HbS oligomers at sub-nucleating concentration; format: biochemical; details: HbS 25 μM, hit compounds 100 μM, two hours at room temperature, degassed with argon; FIG. 4C
Method: (FIG. 4A) Pilot screening with LOPAC library. Compounds that reduced the FRET efficiency below 3SD (black line) were selected for further characterization. […] Fluorescently labeled HbS samples were plated in a 1536 plate and treated separately with DMSO or the three hit compounds, chlormezanone, gabazine, and phosphoramidon disodium, in a dose-dependent manner from 0.1 to 1000 μM for 2 hours at room temperature and then vacuum degassed for 10 minutes, and then donor lifetimes were measured using a fluorescence plate reader. […] HbS samples (25 μM) were incubated separately with hit compounds (100 μM) or DMSO only for two hours at room temperature and degassed with argon for five minutes, and then DLS measurement were taken at room temperature. […] Effect of hit compounds on polymerization of deoxyHbS in high potassium phosphate buffer. Curves represent growth of polymer as a function of time in the presence or absence of drug.

[2] = target: T1, deoxyHbS oligomers (HbS-rhodamine red / HbS-Cy5) (Homo sapiens, UniProt P68871+P69905, E7V); assay: Fluorescence lifetime (FLT) FRET assay of deoxyHbS oligomerization (LOPAC screen and dose response); format: biochemical
T1 construct: purchased Sigma
Method: Development of HTS platform for identification of small molecules that inhibit in vitro HbS nucleation: Sickle hemoglobin (HbS) (sigma) was labeled with either fluorescent donor (rhodamine red) or acceptor (Cy5) dyes (Thermo fisher scientific) via a cysteine thiol group. For labeling, lyophilized HbS (10 mg/ml) was dissolved in PBS (Sigma) and then centrifuged at 13000 g for five minutes at 4° C. to remove the debris. After centrifugation protein sample was incubated with TCEP (0.5-1 mM) for 20 minutes at room temperature to reduce the cysteine side-chain. This protein mixture was incubated with 1.5 mM dye (dissolved in DMSO or water) for two hours in the dark at room temperature or overnight at 4° C. Unreacted free dye was removed by dialysis against PBS. The degree of labeling was calculated by comparing the absorption of the fluorophore conjugated hemoglobin at 280 nm to the absorbance of the dye at its maximum wavelength. The dye concentration was measured by absorbance, using extinction coefficients of 250,000 M −1 cm -1 for Cy5 conjugates and 88000 M −1 cm -1 for Rhodamine Red conjugates.
High-Throughput Screening of LOPAC Library to Identify Compounds That Inhibit HbS Oligomerization Under Deoxy Condition: The LOPAC compounds (Thermo Fisher Scientific) were received in 96-well plates. Assay plates were prepared by transferring 5 nL of the 10 mM compound stocks or DMSO from the source plates to 1536-well black polypropylene plates (Greiner), using an Echo 550 acoustic dispenser (Labcyte). During screening, donor sample (HbS/Rhodamine Red) was mixed with acceptor (HbS/Cy5) at 1:5 ratios. Then protein samples were dispensed (5 μL, 25 μM) by a Multidrop Combi Reagent Dispenser (Thermo Fisher Scientific) into the 1536-well assay plates containing the compounds and incubated at room temperature for two hours. After incubation, protein samples were degassed for 10-15 minutes using vacuum argon degassing method. Lifetime measurements were taken by the fluorescence lifetime plate reader (Fluorescence Innovations, Inc).
Fluorescence Data Acquisition: We tested the functionality of the HbS FRET pair by measuring lifetimes of oxy-and deoxy HbA and HbS using a fluorescence lifetime plate reader (FIG. 3A). Lifetimes are reciprocally related to FRET, so a decrease in lifetime corresponds to an increase in FRET. Donor fluorescence was excited with a 532 nm laser (Teem Photonics SNG-20F-100, Meylan, France), delivering pulses of -0.3 μJ energy at a 20 kHz repetition rate, and emission was filtered with 546 nm long pass and 586/20 nm band pass filters. This filter was selected to exclude acceptor fluorescence, as only the lifetime of the donor fluorescent protein is required to calculate FRET (Equation (1)). The photomultiplier tube (PMT) voltage was adjusted so that the peak signals of the instrument response function (IRF) and FRET biosensor were similar.
High-Throughput Screening Data Analysis: Time resolve-fluorescence waveforms for each well were fitted with single-exponential decays using least-squares minimization global analysis software (Petersen et al., F2014, Rev Sci Instrum 85, 113101). FRET efficiency (E) was determined as the fractional decrease of donor lifetime (T_D ), due to the presence of acceptor fluorophore (T_DA) using equation 1: […]
These drug compounds were dissolved in DMSO to make 20 mM stock solution. Hits were screened at seven different concentrations. Protein samples were dispensed into the 96-well assay plates and incubated with hit compounds at room temperature for two hours. After incubation, protein samples were degassed for 10 minutes using vacuum argon degassing method. Lifetime measurements were taken by the fluorescence lifetime plate reader (Fluorescence Innovations, Inc).

| SMILES | size of deoxyHbS oligomers (DLS effective diameter) relative to control [1] | FRET efficiency in dose response ([2]; 0.1 to 1000 μM, 2 hours at room temperature, then degassed, FIG. 4B) | FRET efficiency of HbS under deoxy conditions ([2]; known polymerization inhibitors as controls, FIG. 1D) |
| --- | --- | --- | --- |
| CC(C)C[C@H](NP(=O)(O)O[C@@H]1O[C@@H](C)[C@H](O)[C@@H](O)[C@H]1O)C(=O)N[C@@H](Cc1c[nH]c2ccccc12)C(=O)O [phosphoramidon disodium] | significantly decreased the oligomer size | decreased FRET efficiency in a dose-dependent manner |  |
| N[C@@H](Cc1ccccc1)C(=O)O [phenylalanine] |  |  | decreased the FRET efficiency; also recorded: reduced FRET efficiency |
